# Assays:
# Staphylococcus aureus [1] = assay: Antibacterial activity against methicillin-resistant Staphylococcus aureus PU 32 harboring i-ermA gene incubated for 16 to 20 hrs by CLSI based broth microdilution method; format: functional; conditions: time 16-20 hrs
# Haemophilus influenzae [2] = assay: Bactericidal activity against Haemophilus influenzae ATCC 49247 incubated for 16 to 20 hrs by CLSI based broth microdilution method; format: functional; conditions: time 16-20 hrs
# Streptococcus pneumoniae [3] = assay: Bactericidal activity against Streptococcus pneumoniae PU 09 harboring mef gene incubated for 16 to 20 hrs by CLSI based broth microdilution method; format: functional; conditions: time 16-20 hrs
# Staphylococcus aureus [4] = assay: Bactericidal activity against methicillin-resistant Staphylococcus aureus PU 32 harboring i-ermA gene incubated for 16 to 20 hrs by CLSI based broth microdilution method; format: functional; conditions: time 16-20 hrs
# Haemophilus influenzae [5] = assay: Antibacterial activity against Haemophilus influenzae ATCC 49247 incubated for 16 to 20 hrs by CLSI based broth microdilution method; format: functional; conditions: time 16-20 hrs
# Staphylococcus aureus [6] = assay: Bactericidal activity against methicillin-resistant Staphylococcus aureus PU 20 harboring c-ermA gene incubated for 16 to 20 hrs by CLSI based broth microdilution method; format: functional; conditions: time 16-20 hrs
# Haemophilus influenzae [7] = assay: Selectivity ratio of MBC for Haemophilus influenzae ATCC 49247 to MIC for Haemophilus influenzae ATCC 49247; format: functional
# Streptococcus pneumoniae [8] = assay: Antibacterial activity against Streptococcus pneumoniae 07P390 harboring c-erm gene incubated for 16 to 20 hrs by CLSI based broth microdilution method; format: functional; conditions: time 16-20 hrs
# Streptococcus pneumoniae [9] = assay: Selectivity ratio of MBC for Streptococcus pneumoniae PU 09 harboring mef gene to MIC for Streptococcus pneumoniae PU 09 harboring mef gene; format: functional
# Streptococcus pneumoniae [10] = assay: Bactericidal activity against Streptococcus pneumoniae 07P390 harboring c-erm gene incubated for 16 to 20 hrs by CLSI based broth microdilution method; format: functional; conditions: time 16-20 hrs
# Staphylococcus aureus [11] = assay: Selectivity ratio of MBC for methicillin-resistant Staphylococcus aureus PU 20 harboring c-ermA gene to MIC for methicillin-resistant Staphylococcus aureus PU 20 harboring c-ermA gene; format: functional
# Streptococcus pneumoniae [12] = assay: Selectivity ratio of MBC for Streptococcus pneumoniae 07P390 harboring c-erm gene to MIC for Streptococcus pneumoniae 07P390 harboring c-erm gene; format: functional
# Streptococcus pneumoniae [13] = assay: Selectivity ratio of MBC for Streptococcus pneumoniae ATCC 49619 to MIC for Streptococcus pneumoniae ATCC 49619; format: functional
# Staphylococcus aureus [14] = assay: Antibacterial activity against methicillin-resistant Staphylococcus aureus PU 20 harboring c-ermA gene incubated for 16 to 20 hrs by CLSI based broth microdilution method; format: functional; conditions: time 16-20 hrs
# Streptococcus pyogenes [15] = assay: Antibacterial activity against Streptococcus pyogenes 01-968 harboring i-ermB gene incubated for 16 to 20 hrs by CLSI based broth microdilution method; format: functional; conditions: time 16-20 hrs
# Streptococcus pyogenes [16] = assay: Bactericidal activity against Streptococcus pyogenes 01-968 harboring i-ermB gene incubated for 16 to 20 hrs by CLSI based broth microdilution method; format: functional; conditions: time 16-20 hrs
# Streptococcus pneumoniae [17] = assay: Bactericidal activity against Streptococcus pneumoniae ATCC 49619 incubated for 16 to 20 hrs by CLSI based broth microdilution method; format: functional; conditions: time 16-20 hrs
# Streptococcus pyogenes [18] = assay: Selectivity ratio of MBC for Streptococcus pyogenes 01-968 harboring i-ermB gene to MIC for Streptococcus pyogenes 01-968 harboring i-ermB gene; format: functional
# Streptococcus pneumoniae [19] = assay: Antibacterial activity against Streptococcus pneumoniae PU 09 harboring mef gene incubated for 16 to 20 hrs by CLSI based broth microdilution method; format: functional; conditions: time 16-20 hrs
# Streptococcus pneumoniae [20] = assay: Antibacterial activity against Streptococcus pneumoniae ATCC 49619 incubated for 16 to 20 hrs by CLSI based broth microdilution method; format: functional; conditions: time 16-20 hrs
# Staphylococcus aureus [21] = assay: Selectivity ratio of MBC for methicillin-resistant Staphylococcus aureus PU 32 harboring i-ermA gene to MIC for methicillin-resistant Staphylococcus aureus PU 32 harboring i-ermA gene; format: functional
# [22] = Metabolic stability in human liver microsomes assessed as unchanged drug at 1 uM incubated upto 60 mins in presence of NADPH by LC-MS/MS analysis; format: ADME, Microsome; conditions: read-out: Stability
# [23] = Metabolic stability in human liver microsomes assessed as half life at 1 uM incubated upto 60 mins in presence of NADPH by LC-MS/MS analysis; format: ADME, Microsome
# [24] = Metabolic stability in human liver microsomes assessed as intrinsic clearance in liver at 1 uM incubated upto 60 mins in presence of NADPH by LC-MS/MS analysis; format: ADME, Microsome; conditions: read-out: CLH
# [25] = Metabolic stability in rat liver microsomes assessed as unchanged drug at 1 uM incubated upto 60 mins in presence of NADPH by LC-MS/MS analysis; format: ADME, Microsome; conditions: read-out: Stability
structure (smiles),measurement,setting,value
CC[C@H]1OC(=O)[C@H](C)[C@@H](OC(=O)Cc2ccccn2)[C@H](C)[C@@H](O[C@@H]2O[C@H](C)C[C@H](N(C)C)[C@H]2O)[C@](C)(OC(=O)CCN2CCN(c3c(F)cc4c(=O)c(C(=O)O)cn(C5CC5)c4c3OC)CC2C)C[C@@H](C)CN(C)[C@H](C)[C@@H](O)[C@]1(C)O (stereo partly specified),MIC,Staphylococcus aureus [1],128 µg/mL
same,MBC,Haemophilus influenzae [2],0.5 µg/mL
same,MBC,Streptococcus pneumoniae [3],8 µg/mL
same,MBC,Staphylococcus aureus [4],> 256 µg/mL
same,MIC,Haemophilus influenzae [5],0.5 µg/mL
same,MBC,Staphylococcus aureus [6],8 µg/mL
same,Selectivity ratio,Haemophilus influenzae [7],1
same,MIC,Streptococcus pneumoniae [8],8 µg/mL
same,Selectivity ratio,Streptococcus pneumoniae [9],4
same,MBC,Streptococcus pneumoniae [10],8 µg/mL
same,Selectivity ratio,Staphylococcus aureus [11],1
same,Selectivity ratio,Streptococcus pneumoniae [12],1
same,Selectivity ratio,Streptococcus pneumoniae [13],2
same,MIC,Staphylococcus aureus [14],8 µg/mL
same,MIC,Streptococcus pyogenes [15],8 µg/mL
same,MBC,Streptococcus pyogenes [16],> 64 µg/mL
same,MBC,Streptococcus pneumoniae [17],1 µg/mL
same,Selectivity ratio,Streptococcus pyogenes [18],>8
same,MIC,Streptococcus pneumoniae [19],2 µg/mL
same,MIC,Streptococcus pneumoniae [20],0.5 µg/mL
CC[C@H]1OC(=O)[C@H](C)[C@@H](OC(=O)CCN2CCN(c3cc4c(cc3F)c(=O)c(C(=O)O)cn4C3CC3)CC2)[C@H](C)[C@@H](O[C@@H]2O[C@H](C)C[C@H](N(C)C)[C@H]2O)[C@](C)(OC)C[C@@H](C)/C(=N\OCCCc2cncc(C(=O)NC)c2)[C@H](C)[C@H]2OC(=O)O[C@@]21C,MIC,Staphylococcus aureus [1],64 µg/mL
same,MBC,Haemophilus influenzae [2],2 µg/mL
same,MBC,Streptococcus pneumoniae [3],0.12 µg/mL
same,MBC,Staphylococcus aureus [4],> 256 µg/mL
same,MIC,Haemophilus influenzae [5],2 µg/mL
same,MBC,Staphylococcus aureus [6],> 256 µg/mL
same,Selectivity ratio,Haemophilus influenzae [7],1
same,MIC,Streptococcus pneumoniae [8],2 µg/mL
same,Selectivity ratio,Streptococcus pneumoniae [9],4
same,MBC,Streptococcus pneumoniae [10],16 µg/mL
same,Selectivity ratio,Staphylococcus aureus [11],>4
same,Selectivity ratio,Streptococcus pneumoniae [12],8
same,Selectivity ratio,Streptococcus pneumoniae [13],2
same,MIC,Staphylococcus aureus [14],64 µg/mL
same,MIC,Streptococcus pyogenes [15],4 µg/mL
same,MBC,Streptococcus pyogenes [16],> 32 µg/mL
same,MBC,Streptococcus pneumoniae [17],0.03 µg/mL
same,Selectivity ratio,Streptococcus pyogenes [18],>8
same,MIC,Streptococcus pneumoniae [19],0.03 µg/mL
same,Selectivity ratio,Staphylococcus aureus [21],>4
same,MIC,Streptococcus pneumoniae [20],0.016 µg/mL
CCOc1ccc2ccc(=O)oc2c1,"remaining at 1 h, 1 µM",[22],14.1%
same,half-life at 1 µM,[23],21.2 min
same,CLint scaled at 1 µM,[24],58.7 mL/min/kg
same,"remaining at 1 h, 1 µM",[25],1%
CC[C@H]1OC(=O)[C@H](C)[C@@H](OC(=O)CCN2CCN(c3c(F)cc4c(=O)c(C(=O)O)cn(C5CC5)c4c3OC)CC2C)[C@H](C)[C@@H](O[C@@H]2O[C@H](C)C[C@H](N(C)C)[C@H]2O)[C@](C)(OC)C[C@@H](C)/C(=N\OCC#Cc2cncc(C(=O)NC)c2)[C@H](C)[C@H]2OC(=O)O[C@@]21C (stereo partly specified),MIC,Staphylococcus aureus [1],> 256 µg/mL
same,MBC,Haemophilus influenzae [2],2 µg/mL
same,MBC,Streptococcus pneumoniae [3],4 µg/mL
same,MBC,Staphylococcus aureus [4],> 256 µg/mL
same,MIC,Haemophilus influenzae [5],2 µg/mL
same,MBC,Staphylococcus aureus [6],32 µg/mL
same,Selectivity ratio,Haemophilus influenzae [7],1
same,MIC,Streptococcus pneumoniae [8],16 µg/mL
same,Selectivity ratio,Streptococcus pneumoniae [9],4
same,MBC,Streptococcus pneumoniae [10],> 128 µg/mL
same,Selectivity ratio,Staphylococcus aureus [11],1
same,Selectivity ratio,Streptococcus pneumoniae [12],>8
same,Selectivity ratio,Streptococcus pneumoniae [13],2
same,MIC,Staphylococcus aureus [14],32 µg/mL
same,MIC,Streptococcus pyogenes [15],16 µg/mL
same,MBC,Streptococcus pyogenes [16],> 128 µg/mL
same,MBC,Streptococcus pneumoniae [17],1 µg/mL
same,Selectivity ratio,Streptococcus pyogenes [18],>8
same,MIC,Streptococcus pneumoniae [19],1 µg/mL
same,MIC,Streptococcus pneumoniae [20],0.5 µg/mL
CC[C@H]1OC(=O)[C@H](C)[C@@H](OC(=O)CCNCCCNc2cc3c(=O)c(C(=O)O)cn(C4CC4)c3cc2Cl)[C@H](C)[C@@H](O[C@@H]2O[C@H](C)C[C@H](N(C)C)[C@H]2O)[C@](C)(OC)C[C@@H](C)/C(=N\OC)[C@H](C)[C@H]2OC(=O)O[C@@]21C,MIC,Staphylococcus aureus [1],32 µg/mL
same,MBC,Haemophilus influenzae [2],256 µg/mL
same,MBC,Streptococcus pneumoniae [3],2 µg/mL
same,MBC,Staphylococcus aureus [4],> 256 µg/mL
same,MIC,Haemophilus influenzae [5],256 µg/mL
same,MBC,Staphylococcus aureus [6],256 µg/mL
same,Selectivity ratio,Haemophilus influenzae [7],1
same,MIC,Streptococcus pneumoniae [8],8 µg/mL
same,Selectivity ratio,Streptococcus pneumoniae [9],1
same,MBC,Streptococcus pneumoniae [10],16 µg/mL
same,Selectivity ratio,Staphylococcus aureus [11],2
same,Selectivity ratio,Streptococcus pneumoniae [12],2
same,Selectivity ratio,Streptococcus pneumoniae [13],2
same,MIC,Staphylococcus aureus [14],128 µg/mL
same,MIC,Streptococcus pyogenes [15],4 µg/mL
same,MBC,Streptococcus pyogenes [16],16 µg/mL
same,MBC,Streptococcus pneumoniae [17],0.5 µg/mL
same,Selectivity ratio,Streptococcus pyogenes [18],4
same,MIC,Streptococcus pneumoniae [19],2 µg/mL
same,Selectivity ratio,Staphylococcus aureus [21],>8
same,MIC,Streptococcus pneumoniae [20],0.25 µg/mL
CC[C@H]1OC(=O)[C@H](C)[C@@H](OC(=O)CCN2CCN(c3nc4c(cc3F)c(=O)c(C(=O)O)cn4CC)CC2)[C@H](C)[C@@H](O[C@@H]2O[C@H](C)C[C@H](N(C)C)[C@H]2O)[C@](C)(OC)C[C@@H](C)/C(=N\OCC#Cc2cncc(C(=O)NC)c2)[C@H](C)[C@H]2OC(=O)O[C@@]21C,MIC,Staphylococcus aureus [1],64 µg/mL
same,MBC,Haemophilus influenzae [2],32 µg/mL
same,MBC,Streptococcus pneumoniae [3],0.25 µg/mL
same,MBC,Staphylococcus aureus [4],> 256 µg/mL
same,MIC,Haemophilus influenzae [5],32 µg/mL
same,MBC,Staphylococcus aureus [6],> 256 µg/mL
same,Selectivity ratio,Haemophilus influenzae [7],1
same,MIC,Streptococcus pneumoniae [8],4 µg/mL
same,Selectivity ratio,Streptococcus pneumoniae [9],4
same,MBC,Streptococcus pneumoniae [10],> 32 µg/mL
same,Selectivity ratio,Streptococcus pneumoniae [12],>8
same,Selectivity ratio,Streptococcus pneumoniae [13],1
same,MIC,Staphylococcus aureus [14],> 256 µg/mL
same,MIC,Streptococcus pyogenes [15],4 µg/mL
same,MBC,Streptococcus pyogenes [16],> 32 µg/mL
same,MBC,Streptococcus pneumoniae [17],0.03 µg/mL
same,Selectivity ratio,Streptococcus pyogenes [18],>8
same,MIC,Streptococcus pneumoniae [19],0.06 µg/mL
same,Selectivity ratio,Staphylococcus aureus [21],>4
same,MIC,Streptococcus pneumoniae [20],0.03 µg/mL
CC[C@H]1OC(=O)[C@H](C)[C@@H](OC(=O)CCNCCCCCCNc2cc3c(cc2F)c(=O)c(C(=O)O)cn3C2CC2)[C@H](C)[C@@H](O[C@@H]2O[C@H](C)C[C@H](N(C)C)[C@H]2O)[C@](C)(OC)C[C@@H](C)/C(=N\OC)[C@H](C)[C@H]2OC(=O)O[C@@]21C,MIC,Staphylococcus aureus [1],4 µg/mL
same,MBC,Haemophilus influenzae [2],256 µg/mL
same,MBC,Streptococcus pneumoniae [3],1 µg/mL
same,MBC,Staphylococcus aureus [4],16 µg/mL
same,MIC,Haemophilus influenzae [5],256 µg/mL
same,MBC,Staphylococcus aureus [6],> 256 µg/mL
same,Selectivity ratio,Haemophilus influenzae [7],1
same,MIC,Streptococcus pneumoniae [8],1 µg/mL
same,Selectivity ratio,Streptococcus pneumoniae [9],2
same,MBC,Streptococcus pneumoniae [10],4 µg/mL
same,Selectivity ratio,Streptococcus pneumoniae [12],4
same,Selectivity ratio,Streptococcus pneumoniae [13],1
same,MIC,Staphylococcus aureus [14],128 µg/mL
same,MIC,Streptococcus pyogenes [15],≤ 0.008 µg/mL
same,MBC,Streptococcus pyogenes [16],> 0.062 µg/mL
same,MBC,Streptococcus pneumoniae [17],0.062 µg/mL
same,Selectivity ratio,Streptococcus pyogenes [18],>8
same,MIC,Streptococcus pneumoniae [19],0.5 µg/mL
same,Selectivity ratio,Staphylococcus aureus [21],4
same,MIC,Streptococcus pneumoniae [20],0.062 µg/mL
